Common to all, as to assay type: binding
For assay [1], the target named is T1, EPAC1-CNB (Homo sapiens, UniProt O95398).
T1 construct: EPAC1-CNB (amino acids 169–318 of EPAC1); made in house; host or cells: BL-21 Escherichia coli (pGEX-6P-1)
T1 sequence (O95398 169-318 isoform O95398-3): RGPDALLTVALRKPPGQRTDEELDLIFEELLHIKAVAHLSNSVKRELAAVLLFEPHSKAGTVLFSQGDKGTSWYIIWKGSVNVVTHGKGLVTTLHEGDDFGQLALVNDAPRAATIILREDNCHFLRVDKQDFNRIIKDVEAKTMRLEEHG
Kind of assay: 8-NBD-cAMP competition assay with EPAC1-CNB. To be noted: for IC50: 7-point dose response, 75 µM top concentration, 0.75% DMSO. As to the method: Optimisation of assay conditions was performed in 96 well black assay plates (Greiner). Comparison of reference molecules, dose response curves and pilot screen were done in black, low volume 384 assay plates (Greiner). Liquids were dispensed using a Biomek Fx laboratory automation workstation with a 96-multichannel pipetting head (Beckman Coulter) for optimisation, whereas the Echo® Liquid Handler (Labcyte) and Wellmate automated dispenser (Thermo Matrix) were employed for pilot screens (see library screening).
This was done using the optimised assay conditions developed during the study. Library compounds were transferred from pre-prepared, 1000x stock Echo® 384 LDV source plates (Labcyte) into black, low volume 384 assay plates (Greiner) at 25 nl volumes, using an Echo® Liquid Handler (Labcyte), maintaining 0.1–1% DMSO throughout. EPAC1-CNB (0.8 µM) was immediately added using a Wellmate automated dispenser (Thermo Matrix). Plates were centrifuged at 800 rpm, 10 s, and then incubated for 30 minutes, RT, to promote compound-protein complex formation. […] The assay was incubated at room temperature and the fluorescence intensity at 480/535 nm (ex/em) was measured after 4–15 hours using the Envision plate reader.

Assay [2] has as its target T1, EPAC1-CNB. The assay can be described thus: Ligand observed NMR (1D and waterLOGSY) with EPAC1-CNB. As to conditions: compound 50 µM, protein 2.5 µM. The source says:
(§1) Given that I942 seems to exert selective agonist properties against EPAC1, but not EPAC2, we next sought to validate whether our isolated ligands can interact with EPAC1 and EPAC2. Ligand observed nuclear magnetic resonance (NMR) is a valuable tool for the identification and validation of small molecule ligands. We therefore used one dimensional proton (1D) and water-ligand observed by gradient spectroscopy (waterLOGSY) NMR to confirm the ability of I942 and I178 to bind to the purified CNBs of EPAC1 and EPAC2, in comparison with the commercially available EPAC1 antagonist, ESI-09[32]. In order to assess ligand/CNB interaction, 1D and waterLOGSY experiments were performed on each compound (50 µM) in the presence or absence of 2.5 µM EPAC-CNB. In the absence of protein, each test compound produced a well-resolved 1D spectrum and a region of each spectrum was chosen to display distinctive spectral peaks originating from the ligand (Fig. 6). In the absence of protein, the corresponding waterLOGSY peaks were small, or absent, due to the negligible signal produced by saturation transfer from water to the freely tumbling small molecule. […] In waterLOGSY spectra, protein-mediated saturation transfer can only occur if the protein-ligand complex has a substantial lifetime. […]
(§2) (A) One dimensional proton (1D) and waterLOGSY (WL) spectra were performed on samples containing hit compound I942 (50 µM) in the absence and presence of EPAC1-CNB, EPAC2-CNB or GST alone, as indicated (2.5 µM). […] Interaction between compound and protein was assessed through comparison of the compound alone and protein-compound sample spectra. […]
(§3) All NMR spectra were recorded on a Bruker AVANCE IIIHD 600 spectrometer equipped with a TCI cryoprobe at 285 K. Test compounds were prepared in deuterated DMSO and diluted to given experimental concentrations in NMR buffer (20 mM Na2PO4, pH 7.0, 50 mM NaCl, 0.1% (w/v) NaN3, 5% (v/v) D2O) with a final DMSO concentration below 0.1%. […] One dimensional proton (1D) and waterLOGSY spectra were recorded for all compounds tested, using pulse sequences as previously described. […]

The target of assay [3] is T2, EPAC2-CNB (Mus musculus, UniProt Q9EQZ6).
T2 construct: EPAC2-CNB (amino acids 304–453 of EPAC2); made in house; host or cells: BL-21 Escherichia coli (pGEX-6P-1)
T2 sequence (Q9EQZ6 304-453 isoform Q9EQZ6-3): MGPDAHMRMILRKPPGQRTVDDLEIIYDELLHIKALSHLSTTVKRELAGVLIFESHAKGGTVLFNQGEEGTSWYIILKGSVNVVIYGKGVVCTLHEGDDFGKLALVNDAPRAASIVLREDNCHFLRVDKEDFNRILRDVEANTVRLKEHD
Kind of assay: Ligand observed NMR (1D and waterLOGSY) with EPAC2-CNB. To be noted: compound 50 µM, protein 2.5 µM.
Excerpt: as §1, §2, §3

We go through 2 molecules from article PMC5428521, “Identification of a Novel, Small Molecule Partial Agonist for the Cyclic AMP Sensor, EPAC1” (Scientific Reports, 2017).

The IC50 is the midpoint of a concentration-inhibition curve. As a reminder, the Kd is the free concentration of one partner at which half of the binding sites on the other are occupied at equilibrium, for simple one-to-one binding. The low end stands for higher affinity, the high end for lower affinity.

Like-named read-outs stand apart in the source and are kept apart here.

`O=C(COc1ccc2ccccc2c1)NS(=O)(=O)c1ccccc1` [I178, N-(benzenesulfonyl)-2-(naphthalen-2-yloxy)acetamide]: the IC50 in assay [1] (read-out: IC50, 8-NBD-cAMP binding assay) was around 40 µM. The NMR interaction entry is on record as “Strong, Specific Interaction” in assay [2] and “Weak, specific interaction” in assay [3].

In the case of `Cc1ccc(S(=O)(=O)NC(=O)COc2ccc3ccccc3c2)c(C)c1` [I942, N-(2,4-dimethylbenzenesulfonyl)-2-(naphthalen-2-yloxy)acetamide], the Kd in assay [1] is around 40 µM. For the same molecule, in assay [1] (IC50, 8-NBD-cAMP binding assay), the IC50 is around 35 µM. For the same molecule, the “affinity, fold lower than that of cAMP” value in assay [1] (competition assay, isolated CNB domain) is recorded as “about 10 fold”. For the same molecule, the NMR interaction entry is listed as “Strong, Specific Interaction” in assay [2] and “Strong, Specific Interaction” in assay [3].
